Test results published in patent US20250090545A1, “METHODS AND COMPOSITIONS FOR TREATMENT OF PERIPHERAL NEUROPATHIES” (UNIVERSITY OF MANITOBA, priority 2013, published 2025).
Entries after “also recorded” stand apart in the source; their conditions may differ.

Legend:
PGC-1α = PGC-1α transcriptional activity, luciferase reporter in adult sensory neurons; assay type: cell-based, rat
Description: PGC-1α transcriptional activity was determined in dissociated adult sensory neurons derived from STZ-induced diabetic rats by transfection for two days with luciferase-based reporter plasmids by following the methods taught in the AMAXA® NUCLEOFECTOR® II Manual (www.amaxa.com; AMAX and NUCLEOFECTOR are registered trademarks of Amaxa GmBH Corp., Koln, Fed. Rep. Germany) and by Saleh et al. (2013, Ciliary neurotrophic factor activates NF-κB to enhance mitochondrial bioenergetics and prevent neuropathy in sensory neurons of streptozotocin-induced diabetic rodents. Neuropharmacology 65:65-75) (the luciferase-based reporter plasmids were a gift from Dr. Michael Czubryt, University of Manitoba).

[1] = test system: AMP-activated protein kinase (AMPK); test: AMPK phosphorylation (Western blot) in cultured adult sensory neurons; assay type: cell-based, rat; conditions: neurons from age-matched control rats
Description: Subsets of cultured adult sensory neurons derived from age-matched control rats or 3-5 month STZ-induced diabetic rats were treated with a 1.0 μM pirenzepine-HCl dosage. The first subset was processed immediately while the second, third and fourth subsets of the neurons from the control rats and the diabetic rats were processed after 15 min, after 30 min, and after 60 min respectively following treatment with pirenzepine. The cell cultures were lysed and then used to prepare Western blots which were then probed with antibodies against phosphorylated AMPK (P-AMPK), total AMPK (T-AMPK) and total ERK (T-ERK). […] Values are means±SEM, N=3/group. Statistical significance was analyzed using one-way ANOVA with Tukey's post-hoc test.

[2] = test system: cultured adult rat sensory neurons; test: Total neurite outgrowth in cultured adult sensory neurons; assay type: cell-based; conditions: for total neurite outgrowth: cultured adult sensory neurons from normal adult rodents
From the text: The fundamental hypothesis is that blocking endogenous cholinergic constraint using a muscarinic receptor antagonist will promote re-growth of neurons in patients with established peripheral neuropathy. This occurs via activation of AMPK and PGC-1α and the subsequent augmentation of mitochondrial function. This pathway comprises a proximal step involving M1 receptor antagonist-dependent activation of CaMKKβ (or CaMKK2). This hypothesis is supported by extensive preclinical data using in vitro and in vivo model systems. […] A specific requirement for M1 receptor antagonism is confirmed by the increased neurite outgrowth from sensory neurons derived from M1R KO mice.
The highly specific M1 receptor antagonist, MT7 (muscarinic toxin 7), enhanced neurite outgrowth in cultured adult rat sensory neurons (FIGS. 9(A), 9(B), 10). The data in FIG. 10 are means±SEM of 9 replicate cultures. Significant differences were determined by one-way ANOVA with Dunnett's post-hoc test.

[3] = test system: STZ-induced diabetic Swiss Webster mice; test: Topical atropine (eye or paw) in STZ-induced diabetic Swiss Webster mice; assay type: in vivo, mouse; conditions: 5 days/wk, 12 weeks
Description: Groups of adult Swiss Webster mice were made diabetic with STZ and then treated 5 days/wk with atropine delivered topically to one eye (2% solution) or topically to one paw (2% gel) for 12 weeks. Measurements were made on both the treated and untreated hind paw. Indices of large motor fiber function (MNCV; FIG. 21) and sensory sensory fiber function (paw thermal latency; FIG. 22) were measured and compared to those of age-matched control mice that were treated in an equivalent manner. […] The data shown in FIGS. 21 and 22 are group means±SEM with N=6-10/group. Significant differences were determined by unpaired t-test to compare control and diabetic animals under each condition (vehicle, atropine to the eye, atropine to the foot).

[4] = test system: adult sensory neurons from normal rats; test: Neurite outgrowth of sensory neurons exposed to paclitaxel or oxaliplatin; assay type: cell-based, rat; conditions: 24 hours; paclitaxel 0.1 or 0.3 μM, oxaliplatin 3.0 μM
Description: Adult sensory neurons from normal rats were cultured for 24 hours in the presence of(A) paclitaxel (PX; 0.1 μM or 0.3 μM), or (B) oxaliplatin (OX; 3.0 μM). From time of plating some cultures were treated with 0.1, 1.0 or 10 μM pirenzepine (PZ). Levels of total neurite outgrowth were determined and presented as means±SEM, N=6-8/group. Significant differences were assessed in(A) by t-test, and in(B) by one-way ANOVA with Dunnett's post-hoc test.

[5] = test system: STZ-induced diabetic Swiss Webster mice; test: Systemic oxybutynin in STZ-induced diabetic Swiss Webster mice, thermal hypoalgesia; assay type: in vivo, mouse; conditions: 9 weeks after 8 weeks of untreated diabetes
db/db mice = test: Topical oxybutynin in db/db mouse model of type 2 diabetes; assay type: in vivo
Description: The muscarinic receptor antagonist oxybutynin was tested for efficacy against a functional measure of sensory neuropathy in the db/db mouse model of type 2 diabetes (FIG. 15). Thermal latency was analyzed as taught by Calcutt et al. (2004, Prevention of sensory disorders in diabetic Sprague-Dawley rats by aldose reductase inhibition or treatment with ciliary neurotrophic factor. Diabetologia 47:718-24). […] Some diabetic mice were then treated with oxybutynin (Oxy: 2% in hydrogel) applied to the right paw for 20 min/day 5 days a week, while others were treated with hydrogel vehicle alone. […] Data are group mean±SEM of N=8-9/group.
IENF levels were quantified as taught by Beiswenger et al. (2008, Epidermal nerve fiber quantification in the assessment of diabetic neuropathy. Acta Histochem. 110:351-63). The data shown in FIG. 16(A) are group mean±SEM of N=6-8/group. Significant differences were determined with a oneway ANOVA followed by Dunnett's post-hoc test. […] After 8 weeks of topical oxybutynin treatment, the eyes were assessed using corneal confocal microscopy as taught by Chen et al. (2013, Repeated monitoring of corneal nerves by confocal microscopy as an index of peripheral neuropathy in type-1 diabetic rodents and the effects of topical insulin. J. Periph. Nerv. Syst. 18;306-315).

M1 receptor = target: T1, M1 receptor (Homo sapiens, UniProt P11229); conditions: cited from earlier work
T1 sequence (P11229 1-460): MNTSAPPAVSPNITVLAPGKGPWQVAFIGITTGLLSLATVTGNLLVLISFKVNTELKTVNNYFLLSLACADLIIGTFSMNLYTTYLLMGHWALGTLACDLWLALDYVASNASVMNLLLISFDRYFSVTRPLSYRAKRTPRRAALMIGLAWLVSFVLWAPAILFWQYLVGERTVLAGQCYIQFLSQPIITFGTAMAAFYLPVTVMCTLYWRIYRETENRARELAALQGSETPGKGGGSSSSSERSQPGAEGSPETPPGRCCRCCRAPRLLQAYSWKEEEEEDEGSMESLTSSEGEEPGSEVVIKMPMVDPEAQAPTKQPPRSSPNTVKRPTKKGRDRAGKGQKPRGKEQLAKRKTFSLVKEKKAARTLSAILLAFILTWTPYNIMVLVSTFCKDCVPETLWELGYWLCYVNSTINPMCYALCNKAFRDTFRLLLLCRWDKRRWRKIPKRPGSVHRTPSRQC

adult Swiss Webster mice = test: Corneal nerve occupancy by confocal microscopy in normal mice given MT7 eye drops; assay type: in vivo, mouse; conditions: daily eye drops; day 11 vs day 2, p<0.05
Description: To further extend our investigation of the actions of muscarinic receptor antagonists on nerve growth, we treated normal mice with the M1 receptor-specific antagonist MT7 by daily delivery to the eyes for 11 days and used confocal microscopy to provide a non-invasive and therefore iterative assessment of corneal nerve density.
A group (n=8) of adult Swiss Webster mice received daily treatment with MT7, which was given by eye drops (20 μl volume) in saline. Nerve occupancies in the sub-basal nerve plexus (SBNP 1-5) and upper stromal (Stroma 1-10) regions of the cornea were measured on day 2 and day 11 of treatment (FIG. 23). […] Data are group means (N=8)±SEM.

[6] = test system: cultured adult rat sensory neurons; assay type: cell-based; conditions: gp120 24 hours; not shown
Description: To further extend our investigation of the actions of muscarinic receptor antagonists on nerve growth, cultured adult rat sensory neurons were treated for 24 hours with recombinant gp120, an external coat protein of HIV that causes toxicity to sensory neurons in HIV neuropathy (FIG. 24). This toxicity leads to axon degeneration and neuronal cell death. Cultures were treated with 1 μM pirenzpeine and total neurite outgrowth determined. […] Values are means±SEM. n=6.

[7] = 2% solution topically to one eye
[8] = topical, 8 weeks, values not significantly different from controls

With `c1cc(-c2cnn3cc(-c4ccc(OCCN5CCCCC5)cc4)cnc23)ccn1` [Compound C] as the molecule, how does the “effect on MT7 stimulation of PGC-1α transcription” value (PGC-1α; 0.3μM co-treatment with MT7) read?
Its value is “blocked”.

Which “effect on MT7-induced enhancement of AMPK phosphorylation” value ([1]; 1.0μM) does the source give for `O=C(O)c1ccc2c3c1cccc3c(=O)n1c3ccccc3nc21` [STO-609] here?
The value was “inhibited”.

And the “effect on pirenzepine-induced enhancement of AMPK phosphorylation” value ([1]; 1.0μM)?
The value was “inhibited”.

What about the “effect on pirenzepine-induced neurite outgrowth” value ([2]; cultured adult rat sensory neurons) of the same molecule?
Its value is “dose-dependently inhibited”.

For `CN1[C@@H]2CC[C@H]1C[C@@H](OC(=O)C(CO)c1ccccc1)C2` (stereo partly drawn) [atropine], which “large fiber MNCV” value ([3]; 2% gel topically to one paw) is on record?
The value was “not different to controls”.

What about the “paw thermal hypoalgesia (paw thermal latency)” value ([3]; 2% gel topically to one paw) of the same molecule?
Its value is “not different to controls”.

And the “large fiber MNCV” value [3, 7]?
The value was “not different to controls”.

And the “paw thermal hypoalgesia (paw thermal latency)” value [3, 7]?
Its value is “not different to controls”.

Which “neurite outgrowth of sensory neurons exposed in vitro to the chemotherapeutic” value [4] does the source give for `O=C1[O][Pt]2([NH][C@@H]3CCCC[C@H]3[NH]2)[O]C1=O` [oxaliplatin] here?
Its value is “reduced neurite outgrowth”.

Which thermal hypoalgesia ([5]; 3 mg/kg s.c.) does the source give for `CCN(CC)CC#CCOC(=O)C(O)(c1ccccc1)C1CCCCC1` (stereo not drawn) [oxybutynin, 4-dicthylaminobut-2-ynyl-2-cyclohexyl-2-hydroxy-2-phenyl-ethanoate] here?
Its thermal hypoalgesia is “able to reverse”.

And the thermal hypoalgesia ([5]; 10 mg/kg s.c.)?
The thermal hypoalgesia was “able to reverse”.

What about the total neurite outgrowth [2] of the same molecule?
The total neurite outgrowth was “elevated”.

And the “paw thermal hypoalgesia (thermal latency)” value (db/db mice; 2% in hydrogel to right paw 20 min/day, 5 days a week, 8 weeks, p<0.01 vs vehicle)?
Its value is “reversed”.

What about the “time of treatment to reversal of thermal hypoalgesia” value (db/db mice; topical oxybutynin) of the same molecule?
Its value is 4-8 weeks.

And the “reduction in density of IENF in paw skin” value (db/db mice; [8])?
The value was “attenuated”.

And the “reduction in nerve fiber occupancy in the cornea” value (db/db mice; [8])?
Its value is “attenuated”.

B1: MT7: 64-66 amino acid protein derived from the African green mamba snake; most specific antagonist of the M1 receptor (protein, UniProt Q8QGR0 22-86, looked up)
Muscarinic toxin 7: LTCVKSNSIWFPTSEDCPDGQNLCFKRWQYISPRMYDFTRGCAATCPKAEYRDVINCCGTDKCNK
With B1 as the molecule, how does the AMPK phosphorylation ([1]; MT7) read?
Its AMPK phosphorylation is “enhancement”.

What about the total neurite outgrowth [2] of the same molecule?
The total neurite outgrowth was “enhanced; also recorded: dose-dependently elevated”.

And the “concentrations at which it binds to an allosteric site on the M1 receptor” value (M1 receptor; allosteric site)?
Its value is “low nanomolar”.

And the “selectivity for M1 receptors over M2-M5” value (M1 receptor)?
Its value is 10,000 fold.

What about the “nerve occupancy in the sub-basal nerve plexus (SBNP 1-5) of the cornea” value (adult Swiss Webster mice) of the same molecule?
The value was “increased significantly”.

What about the “nerve occupancy in the upper stromal (Stroma 1-10) region of the cornea” value (adult Swiss Webster mice) of the same molecule?
Its value is “increased significantly”.

What about the “transcription of PGC-1α” value (PGC-1α; MT7 treatment, neurons from STZ-induced diabetic rats) of the same molecule?
The value was “activated”.

What about the “level of protection from gp120 treatment” value [6] of the same molecule?
Its value is “approximately 50%”.
